pIC50: −log10 of the molar value.
What follows are compounds tested against T1, JMJD2C (Homo sapiens, UniProt Q9H3R0) (assay: JMJD2C in vitro enzyme inhibition assay (TR-FRET)). Conditions: 0.3 nM JMJD2C, 300 nM H3K9me3-biotin peptide, 2 μM alpha-ketoglutaric acid.
T1 sequence (Q9H3R0 2-372): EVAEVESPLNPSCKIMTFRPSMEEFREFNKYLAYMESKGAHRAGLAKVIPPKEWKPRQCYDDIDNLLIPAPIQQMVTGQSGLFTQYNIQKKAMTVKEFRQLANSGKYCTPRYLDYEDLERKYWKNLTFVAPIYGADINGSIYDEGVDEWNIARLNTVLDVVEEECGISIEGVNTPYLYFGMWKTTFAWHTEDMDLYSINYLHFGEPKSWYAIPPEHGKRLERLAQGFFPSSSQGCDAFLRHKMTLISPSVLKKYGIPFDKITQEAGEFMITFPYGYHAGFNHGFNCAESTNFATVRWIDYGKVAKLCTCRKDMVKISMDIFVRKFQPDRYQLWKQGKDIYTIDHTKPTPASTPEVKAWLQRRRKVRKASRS
Type: biochemical
Experimental: This assay determines the ability of a test compound to inhibit Jarid1A, Jarid1B, and JMJD2C demethylase activity.
Reaction product was determined quantitatively by TR-FRET after the addition of detection reagent Phycolink Streptavidin-allophycocyanin (Prozyme) and Europium-anti-di-methylated histone H3 lysine 9 (H3K9me2) antibody (PerkinElmer) in the presence of 5 mM EDTA in LANCE detection buffer (PerkinElmer) at a final concentration of 50 nM and 1 nM, respectively.
The assay reaction was initiated by the following: 2 μl of the mixture of 900 nM H3K9me3-biotin labeled peptide and 6 μM alpha-ketoglutaric acid with 2 μl of 11-point serial diluted inhibitor in 3% DMSO were added to each well of the plate, followed by the addition of 2 μl of 0.9 nM JMJD2C to initiate the reaction. The reaction mixture was incubated at room temperature for 30 minutes, and terminated by the addition of 6 μl of 5 mM EDTA in LANCE detection buffer containing 100 nM Phycolink Streptavidin-allophycocyanin and 2 nM Europium-anti-H3K9me2 antibody.

Cn1nc(Nc2cnccc2C(=O)O)c2cc(Cl)ccc21 [Example 4] and CCCn1nc(Nc2cnccc2C(=O)O)c2cc(Cl)ccc21 [Example 33, 3-[(5-chloro-1-propyl-1H-indazol-3-yl)amino]pyridine-4-carboxylic acid] fall in the same range of pIC50: 6.00 to 7.00 for the first, 6.00 to 7.00 for the second.

Cc1ccc2c(Nc3cnccc3C(=O)O)nn(C)c2c1 [Example 5, 3-[(1,6-dimethyl-1H-indazol-3-yl)amino]pyridine-4-carboxylic acid] and COc1ccc2c(Nc3cnccc3C(=O)O)nn(C)c2c1 [Example 8, 3-[(6-methoxy-1-methyl-1H-indazol-3-yl)amino]pyridine-4-carboxylic acid] fall in the same range of pIC50: 6.00 to 7.00 for the first, 6.00 to 7.00 for the second.

CCCn1nc(Nc2cnccc2C(=O)O)c2ccccc21 [Example 9, 3-[(1-propyl-1H-indazol-3-yl)amino]pyridine-4-carboxylic acid] and COCCn1nc(Nc2cnccc2C(=O)O)c2ccccc21 [Example 10, 3-{[1-(2-methoxyethyl)-1H-indazol-3-yl]amino}pyridine-4-carboxylic acid] fall in the same range of pIC50: 6.00 to 7.00 for the first, 6.00 to 7.00 for the second.

CCCn1nc(Nc2cnccc2C(=O)O)c2cc(F)ccc21 [Example 15, 3-[(5-fluoro-1-propyl-1H-indazol-3-yl)amino]pyridine-4-carboxylic acid] and CCCCCn1nc(Nc2cnccc2C(=O)O)c2cc(F)ccc21 [Example 18, 3-[(5-fluoro-1-pentyl-1H-indazol-3-yl)amino]pyridine-4-carboxylic acid] fall in the same range of pIC50: 6.00 to 7.00 for the first, 6.00 to 7.00 for the second.

O=C(O)c1ccncc1Nc1nn(CC2CC2)c2ccc(F)cc12 [Example 16, 3-{[1-(cyclopropylmethyl)-5-fluoro-1H-indazol-3-yl]amino}pyridine-4-carboxylic acid] and O=C(O)c1ccncc1Nc1nn(CC2CCC2)c2ccc(F)cc12 [Example 28, 3-{[1-(cyclobutylmethyl)-5-fluoro-1H-indazol-3-yl]amino}pyridine-4-carboxylic acid] fall in the same range of pIC50: 6.00 to 7.00 for the first, 6.00 to 7.00 for the second.

O=C(O)c1ccncc1Nc1nn(CCc2ccccc2)c2ccc(F)cc12 [Example 19, 3-{[5-fluoro-1-(2-phenethyl)-1H-indazol-3-yl]amino}pyridine-4-carboxylic acid] and O=C(O)c1ccncc1Nc1nn(CCC2CC2)c2ccc(F)cc12 [Example 31, 3-{[1-(cyclopropylethyl)-5-fluoro-1H-indazol-3-yl]amino}pyridine-4-carboxylic acid] fall in the same range of pIC50: 6.00 to 7.00 for the first, 6.00 to 7.00 for the second.

O=C(O)c1ccncc1Nc1nn(CC2CCCO2)c2ccc(F)cc12 (centres unmarked) [Example 21, 3-{[5-fluoro-1-(tetrahydrofuran-2-ylmethyl)-1H-indazol-3-yl]amino}pyridine-4-carboxylic acid] and O=C(O)c1ccncc1Nc1nn(CC2CCCC2)c2ccc(F)cc12 [Example 30, 3-{[1-(cyclopentylmethyl)-5-fluoro-1H-indazol-3-yl]amino}pyridine-4-carboxylic acid] fall in the same range of pIC50: 6.00 to 7.00 for the first, 6.00 to 7.00 for the second.

O=C(O)c1ccncc1Nc1nn(CC(F)(F)F)c2ccc(F)cc12 [Example 23, 3-{[5-fluoro-1-(2,2,2-trifluoroethyl)-1H-indazol-3-yl]amino}pyridine-4-carboxylic acid] and O=C(O)c1ccncc1Nc1nn(CCC(F)(F)F)c2ccc(F)cc12 [Example 32, 3-{[5-fluoro-1-(3,3,3-trifluoropropyl)-1H-indazol-3-yl]amino}pyridine-4-carboxylic acid] fall in the same range of pIC50: 6.00 to 7.00 for the first, 6.00 to 7.00 for the second.

Compared with CC(C)Cn1nc(Nc2cnccc2C(=O)O)c2cc(F)ccc21 [Example 25, 3-{[5-fluoro-1-(2-methylpropyl)-1H-indazol-3-yl]amino}pyridine-4-carboxylic acid], CC(C)Cn1nc(Nc2cnccc2C(=O)NC#N)c2cc(F)ccc21 [Example 75, N-cyano-3-{[5-fluoro-1-(2-methylpropyl)-1H-indazol-3-yl]amino}pyridine-4-carboxamide] is lower in pIC50: 6.00 to 7.00 for the first, 5.00 to 6.00 for the second.

CCC(C)n1nc(Nc2cnccc2C(=O)O)c2cc(F)ccc21 (centres unmarked) [Example 26, 3-{[5-fluoro-1-(butan-2-yl)-1H-indazol-3-yl]amino}pyridine-4-carboxylic acid] and CCn1nc(Nc2cnccc2C(=O)O)c2cc(C)ccc21 [Example 36, 3-[(1-ethyl-5-methyl-1H-indazol-3-yl)amino]pyridine-4-carboxylic acid] fall in the same range of pIC50: 6.00 to 7.00 for the first, 6.00 to 7.00 for the second.

O=C(O)c1ccncc1Nc1nn(C2CCCC2)c2ccc(F)cc12 [Example 29, 3-[(1-cyclopentyl-5-fluoro-1H-indazol-3-yl)amino]pyridine-4-carboxylic acid] and O=C(O)c1ccncc1Nc1nn(C2CCOCC2)c2ccc(F)cc12 [Example 62, 3-{[5-fluoro-1-(tetrahydro-2H-pyran-4-yl)-1H-indazol-3-yl]amino}pyridine-4-carboxylic acid] fall in the same range of pIC50: 6.00 to 7.00 for the first, 6.00 to 7.00 for the second.

O=C(O)c1ccncc1Nc1nn(CC2CC2)c2ccc(Cl)cc12 [Example 34, 3-{[5-chloro-1-(cyclopropylmethyl)-1H-indazol-3-yl]amino}pyridine-4-carboxylic acid] and Cc1ccc2c(c1)c(Nc1cnccc1C(=O)O)nn2CC1CC1 [Example 37, 3-{[1-(cyclopropylmethyl)-5-methyl-1H-indazol-3-yl]amino}pyridine-4-carboxylic acid] fall in the same range of pIC50: 6.00 to 7.00 for the first, 6.00 to 7.00 for the second.

O=C(O)c1ccncc1Nc1nn(CCC(F)(F)F)c2ccc(Cl)cc12 [Example 35, 3-{[5-chloro-1-(3,3,3-trifluoropropyl)-1H-indazol-3-yl]amino}pyridine-4-carboxylic acid] and Cc1ccc2c(c1)c(Nc1cnccc1C(=O)O)nn2CCC(F)(F)F [Example 39, 3-{[5-methyl-1-(3,3,3-trifluoropropyl)-1H-indazol-3-yl]amino}pyridine-4-carboxylic acid] fall in the same range of pIC50: 6.00 to 7.00 for the first, 6.00 to 7.00 for the second.

CCCn1nc(Nc2cnccc2C(=O)O)c2cc(C)ccc21 [Example 38, 3-[(5-methyl-1-propyl-1H-indazol-3-yl)amino]pyridine-4-carboxylic acid] and CCCn1cc(Nc2cnccc2C(=O)O)c2cc(F)ccc21 [Example 57, 3-[(5-fluoro-1-propyl-1H-indol-3-yl)amino]pyridine-4-carboxylic acid] fall in the same range of pIC50: 6.00 to 7.00 for the first, 6.00 to 7.00 for the second.

Cn1cc(Nc2cnccc2C(=O)O)c2cccnc21 [Example 52, 3-[(1-methyl-1H-pyrrolo[2,3-b]pyridine-3-yl)amino]pyridine-4-carboxylic acid] and O=C(O)c1ccncc1Nc1cn(CCC(F)(F)F)c2ccc(Cl)cc12 [Example 59, 3-{[5-chloro-1-(3,3,3-trifluoropropyl)-1H-indol-3-yl]amino}pyridine-4-carboxylic acid] fall in the same range of pIC50: 6.00 to 7.00 for the first, 6.00 to 7.00 for the second.

O=C(O)c1ccncc1Nc1nn(C2CCCOC2)c2ccc(F)cc12 (centres unmarked) [Example 63, 3-{[5-fluoro-1-(tetrahydro-2H-pyran-3-yl)-1H-indazol-3-yl]amino}pyridine-4-carboxylic acid] and O=C(O)c1ccncc1Nc1nn(C2CCOC2)c2ccc(Cl)cc12 (centres unmarked) [Example 69, 3-{[5-chloro-1-(tetrahydrofuran-3-yl)-1H-indazol-3-yl]amino}pyridine-4-carboxylic acid] fall in the same range of pIC50: 6.00 to 7.00 for the first, 6.00 to 7.00 for the second.

First: O=C(O)c1ccncc1Nc1cn(C2CCOC2)c2ccc(F)cc12 (centres unmarked) [Example 68, 3-{[5-fluoro-1-(tetrahydrofuran-3-yl)-1H-indol-3-yl]amino}pyridine-4-carboxylic acid]
Second: N#CNC(=O)c1ccncc1Nc1nn([C@H]2CCOC2)c2ccc(F)cc12 [Example 70, N-cyano-3-({5-fluoro-1-[(3S)-tetrahydrofuran-3-yl]-1H-indazol-3-yl}amino)pyridine-4-carboxamide]
The pIC50 of the first is higher: 6.00 to 7.00 for the first, 5.00 to 6.00 for the second. The first is the more potent here.

N#CNC(=O)c1ccncc1Nc1nn(CCN2CCC(F)(F)C2)c2ccc(F)cc12 [Example 72, N-cyano-3-({1-[2-(3,3-difluoropyrrolidin-1 yl)ethyl]-5-fluoro-1H-indazol-3-yl}amino)pyridine-4-carboxamide] and N#CNC(=O)c1ccncc1Nc1nn(CCN2CCC(F)(F)CC2)c2ccc(F)cc12 [Example 74, N-cyano-3-({1-[2-(4,4-difluoropiperidin-1 yl)ethyl]-5-fluoro-1H-indazol-3-yl}amino)pyridine-4-carboxamide] fall in the same range of pIC50: 5.00 to 6.00 for the first, 5.00 to 6.00 for the second.

CN(C)CCCCn1nc(Nc2cnccc2C(=O)NC#N)c2cc(F)ccc21 [Example 76, N-cyano-3-({1-[4-(dimethylamino)butyl]-5-fluoro-1H-indazol-3-yl}amino)pyridine-4-carboxamide] and N#CNC(=O)c1ccncc1Nc1nn(CCN2CCCC2)c2ccc(Cl)cc12 [Example 79, N-cyano-3-({5-chloro-1-[2-(pyrrolidin-1-yl)ethyl]-1H-indazol-3-yl}amino)pyridine-4-carboxamide] fall in the same range of pIC50: 6.00 to 7.00 for the first, 6.00 to 7.00 for the second.

Source: patent US8969343B2, “Histone demethylase inhibitors” (priority 2012, dated 2015)
